Some results are limits rather than exact numbers.

This experiment concerns HCV replication. As to the kind of experiment: Replicon Assay (Huh-lucubineo-ET cells, luciferase readout). In kind it is cell-based. The conditions noted are these: Hepatitis C virus; ET (Huh-lucubineo-ET) HCV replicon cell line; luciferase activity 48-72 hours after compound addition; 6 dilutions. An outline of the steps:
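Huh-lucubineo-ET cells stably carrying a firefly luciferase-ubiquitin-neo/NS3-5B ET replicon (adaptive mutations E1202G, T1280I, K1846T) were plated 24 h before compound, then treated at 5 or 50 μM or six 3-fold dilutions. Luciferase read 48-72 h later; % inhibition vs no-compound control, EC50/TC50 from Hill-equation fit.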
A general note: In antiviral work, replicon cells carry a viral genome segment that copies itself.
The term EC50 denotes the concentration giving half of the maximal effect. As for `Fc1cccc(-c2nc3cnn(Cc4ccc(-c5ccccn5)cc4)cc-3n2)c1F` [Compound 299, 2-(2,3-Difluoro-phenyl)-5-(4-pyridin-2-yl-benzyl)-5H-imidazo[4,5-d]pyridazine], the EC50 is not below 50 µM.

On to `Fc1ccccc1-c1nc2cnn(Cc3ccc(OC(F)(F)F)cc3)cc-2n1` [Compound 101, 2-(2-Fluoro-phenyl)-5-(4-trifluoromethoxy-benzyl)-5H-imidazo[4,5-d]pyridazine], for which the EC50 was not below 50 µM.

`Fc1cc(C(F)(F)F)ccc1-c1ccc(Cn2cc3nc(-c4cccc(F)c4F)nc-3cn2)nc1` [Compound 254, 2-(2,3-Difluoro-phenyl)-5-[5-(2-fluoro-4-trifluoromethyl-phenyl)-pyridin-2-ylmethyl]-5H-imidazo[4,5-d]pyridazine] came in with an EC50 not below 50 µM.

The compound `COC(=O)c1cc(Br)ccc1Cn1cc2nc(-c3cccc(F)c3F)nc-2cn1` [Compound 312, 5-Bromo-2-[2-(2,3-difluoro-phenyl)-imidazo[4,5-d]pyridazin-5-ylmethyl]-benzoic acid methyl ester] had an EC50 not below 50 µM.

`O=S(=O)(c1ccc(Cn2cc3nc(-c4cccc(F)c4F)nc-3cn2)cc1)N1CCOCC1` [Compound 275, 2-(2,3-Difluoro-phenyl)-5-[4-(morpholine-4-sulfonyl)-benzyl]-5H-imidazo[4,5-d]pyridazine]: the EC50 was not below 50 µM.

`Fc1cc(C(F)(F)F)ccc1-c1ccc(Cn2cc3nc(-c4cccc(F)c4F)nc-3cn2)cc1` [Compound 230, 2-(2,3-Difluoro-phenyl)-5-(2′-fluoro-4′-trifluoromethyl-biphenyl-4-ylmethyl)-5H-imidazo[4,5-d]pyridazine] displayed an EC50 of 3.14 µM.

`Fc1cccc(-c2nc3cnn(Cc4ccc(-c5ccc(-c6cn[nH]c6)cc5C(F)(F)F)nn4)cc-3n2)c1F` [Compound 203, 2-(2,3-Difluoro-phenyl)-5-{6-[4-(1H-pyrazol-4-yl)-2-trifluoromethyl-phenyl]-pyridazin-3-ylmethyl}-5H-imidazo[4,5-d]pyridazine] gave an EC50 of 21 µM.

Take `COc1ccc(-c2ccc(Cn3cc4nc(-c5ccccc5F)nc-4cn3)nn2)c(C(F)(F)F)c1` [Compound 317, 2-(2-Fluoro-phenyl)-5-[6-(4-methoxy-2-trifluoromethyl-phenyl)-pyridazin-3-ylmethyl]-5H-imidazo[4,5-d]pyridazine]: the EC50 is 0.064 µM.

In turn, `Fc1cccc(-c2nc3cnn(Cc4ccc(-c5ccc(-c6cccnc6)cc5C(F)(F)F)nn4)cc-3n2)c1F` [Compound 204, 2-(2,3-Difluoro-phenyl)-5-[6-(4-pyridin-3-yl-2-trifluoromethyl-phenyl)-pyridazin-3-ylmethyl]-5H-imidazo[4,5-d]pyridazine] gave an EC50 of 0.656 µM.

`Fc1cccc(-c2nc3cnn(Cc4ccc(N5CCOCC5)nn4)cc-3n2)c1F` [Compound 355, 2-(2,3-Difluoro-phenyl)-5-(6-morpholin-4-yl-pyridazin-3-ylmethyl)-5H-imidazo[4,5-d]pyridazine] returned an EC50 not below 50 µM.

With `Fc1cccc(-c2nc3cnn(Cc4ccc(-c5ccc(OCCn6ccnc6)cc5C(F)(F)F)nn4)cc-3n2)c1F` [Compound 330, 2-(2,3-Difluoro-phenyl)-5-{6-[4-(2-imidazol-1-yl-ethoxy)-2-trifluoromethyl-phenyl]-pyridazin-3-ylmethyl}-5H-imidazo[4,5-d]pyridazine], the EC50 was not below 50 µM.

Turning to `Fc1cccc(-c2nc3cnn(Cc4ccc(-c5ccc(Cl)cc5C(F)(F)F)nc4)cc-3n2)c1F` [Compound 236, 5-[6-(4-Chloro-2-trifluoromethyl-phenyl)-pyridin-3-ylmethyl]-2-(2,3-difluoro-phenyl)-5H-imidazo[4,5-d]pyridazine], the EC50 stood at 0.015 µM.

`CCCOc1ccc(-c2ccc(Cn3cc4nc(-c5cccc(F)c5F)nc-4cn3)cc2)cc1` [Compound 109, 2-(2,3-Difluoro-phenyl)-5-(4′-propoxy-biphenyl-4-ylmethyl)-5H-imidazo[4,5-d]pyridazine] had an EC50 of 30 µM.

Take `COc1ccc(-c2cnc(Cn3cc4nc(-c5cccc(F)c5F)nc-4cn3)nc2)c(C(F)(F)F)c1` [Compound 265, 2-(2,3-Difluoro-phenyl)-5-[5-(4-methoxy-2-trifluoromethyl-phenyl)-pyrimidin-2-ylmethyl]-5H-imidazo[4,5-d]pyridazine]: the midpoint of the response, the EC50, lay at 0.228 µM.

`Fc1cccc(-c2nc3cnn(Cc4ccc(Oc5ccc(OC(F)(F)F)cc5)nn4)cc-3n2)c1F` [Compound 341, 2-(2,3-Difluoro-phenyl)-5-[6-(4-trifluoromethoxy-phenoxy)-pyridazin-3-ylmethyl]-5H-imidazo[4,5-d]pyridazine] yielded an EC50 of 6.03 µM.

On to `Fc1cccc(-c2nc3cnn(Cc4cccc(C(F)(F)F)c4)cc-3n2)c1F` [Compound 289, 2-(2,3-Difluoro-phenyl)-5-(3-trifluoromethyl-benzyl)-5H-imidazo[4,5-d]pyridazine], for which the EC50 was not below 50 µM.

`FCCOc1ccc(-c2ccc(Cn3cc4nc(-c5cccc(F)c5F)nc-4cn3)nn2)c(C(F)(F)F)c1` [Compound 352, 2-(2,3-Difluoro-phenyl)-5-{6-[4-(2-fluoro-ethoxy)-2-trifluoromethyl-phenyl]-pyridazin-3-ylmethyl}-5H-imidazo[4,5-d]pyridazine] yielded an EC50 of 0.0228 µM.

As for `Cc1cccc(-c2ccc(Cn3cc4nc(-c5cccc(F)c5F)nc-4cn3)nn2)c1` [Compound 221, 2-(2,3-Difluoro-phenyl)-5-(6-m-tolyl-pyridazin-3-ylmethyl)-5H-imidazo[4,5-d]pyridazine], the EC50 is not below 50 µM.

For the compound `COc1ccc(-c2ccc(Cn3cc4nc(-c5cccc(F)c5F)nc-4cn3)cc2C(=O)O)c(C(F)(F)F)c1` [Compound 346, 4-[2-(2,3-Difluoro-phenyl)-imidazo[4,5-d]pyridazin-5-ylmethyl]-4′-methoxy-2′-trifluoromethyl-biphenyl-2-carboxylic acid], the EC50 is not below 50 µM.

Take `Fc1cccc(-c2nc3cnn(Cc4ccc(-c5ccc(Br)c(C(F)(F)F)c5)cc4)cc-3n2)c1F` [Compound 344, 5-(4′-Bromo-3′-trifluoromethyl-biphenyl-4-ylmethyl)-2-(2,3-difluoro-phenyl)-5H-imidazo[4,5-d]pyridazine]: the midpoint of the response, the EC50, lay at 0.32 µM.

The compound `O=[N+]([O-])c1cccc(Cn2cc3nc(-c4cccc(F)c4F)nc-3cn2)c1` [Compound 290, 2-(2,3-Difluoro-phenyl)-5-(3-nitro-benzyl)-5H-imidazo[4,5-d]pyridazine] had an EC50 not below 50 µM.

`Fc1cccc(-c2ccc(Cn3cc4nc(-c5cccc(F)c5F)nc-4cn3)nn2)c1` [Compound 222, 2-(2,3-Difluoro-phenyl)-5-[6-(3-fluoro-phenyl)-pyridazin-3-ylmethyl]-5H-imidazo[4,5-d]pyridazine]: the EC50 was not below 50 µM.

Consider `O=S(=O)(Oc1ccc(-c2ccc(Cn3cc4nc(-c5cccc(F)c5F)nc-4cn3)nn2)c(C(F)(F)F)c1)C(F)(F)F` [Compound 353, Trifluoro-methanesulfonic acid 4-{6-[2-(2,3-difluoro-phenyl)-imidazo[4,5-d]pyridazin-5-ylmethyl]-pyridazin-3-yl}-3-trifluoromethyl-phenyl ester], for which a half-maximal response (EC50) required 1.19 µM.

`Cc1ccc(-c2ccc(Cn3cc4nc(-c5cccc(F)c5F)nc-4cn3)nn2)cc1` [Compound 211, 2-(2,3-Difluoro-phenyl)-5-(6-p-tolyl-pyridazin-3-ylmethyl)-5H-imidazo[4,5-d]pyridazine] showed an EC50 of 3.47 µM.

With `Cc1nc(Cn2cc3nc(-c4cccc(F)c4F)nc-3cn2)ccc1-c1ccc(C(F)(F)F)cc1C(F)(F)F` [Compound 337, 5-[5-(2,4-Bis-trifluoromethyl-phenyl)-6-methyl-pyridin-2-ylmethyl]-2-(2,3-difluoro-phenyl)-5H-imidazo[4,5-d]pyridazine], a half-maximal response (EC50) required 0.166 µM.

Compound `COc1ccc(-c2ccc(Cn3cc4nc(-c5cccc(F)c5F)nc-4cn3)cc2)c(C(F)(F)F)c1` [Compound 241, 2-(2,3-Difluoro-phenyl)-5-(4′-methoxy-2′-trifluoromethyl-biphenyl-4-ylmethyl)-5H-imidazo[4,5-d]pyridazine] gave an EC50 of 0.021 µM.

`Fc1cccc(-c2nc3cnn(Cc4cccc(OC(F)(F)F)c4)cc-3n2)c1F` [Compound 300, 2-(2,3-Difluoro-phenyl)-5-(3-trifluoromethoxy-benzyl)-5H-imidazo[4,5-d]pyridazine] yielded an EC50 not below 50 µM.

As to `Cc1ccc(-c2ccc(Cn3cc4nc(-c5cccc(F)c5F)nc-4cn3)nn2)c(Cl)c1` [Compound 227, 5-[6-(2-Chloro-4-methyl-phenyl)-pyridazin-3-ylmethyl]-2-(2,3-difluoro-phenyl)-5H-imidazo[4,5-d]pyridazine], the EC50 is 0.097 µM.

On to `Fc1cccc(-c2nc3cnn(Cc4ccc(-c5ccc(OC(F)(F)F)cc5)cc4)cc-3n2)c1F` [Compound 229, 2-(2,3-Difluoro-phenyl)-5-(4′-trifluoromethoxy-biphenyl-4-ylmethyl)-5H-imidazo[4,5-d]pyridazine], for which the EC50 was 8.38 µM.

Compound `COc1ccc(-c2ccc(Cn3cc4nc(-c5cccc(F)c5F)nc-4cn3)c(C(=O)O)c2)c(C(F)(F)F)c1` [Compound 342, 4-[2-(2,3-Difluoro-phenyl)-imidazo[4,5-d]pyridazin-5-ylmethyl]-4′-methoxy-2′-trifluoromethyl-biphenyl-3-carboxylic acid] registered an EC50 not below 50 µM.

The record behind these values is patent US20090226398A1, “ANTI-VIRAL COMPOUNDS, COMPOSITIONS, AND METHODS OF USE” (Genelabs Technologies, Inc., priority 2008, published 2009).
